Reference: patent US8404677B2, “Kinase inhibitors” (Genosco, priority 2009, dated 2013)

Experiments:
NCI-H322M = experiment: cells; assay type: cell-based; conditions: NCI-H322M (NSCLC)
HCT-116 = experiment: cells; assay type: cell-based; conditions: HCT-116 (Colon Cancer)
K-562 = experiment: cells; assay type: cell-based; conditions: K-562 (Leukemia)
HT29 = experiment: cells; assay type: cell-based; conditions: HT29 (Colon Cancer)
SR = experiment: cells; assay type: cell-based; conditions: SR (Leukemia)
UO-31 = experiment: cells; assay type: cell-based; conditions: UO-31 (Renal Cancer)
RXF 393 = experiment: cells; assay type: cell-based; conditions: RXF 393 (Renal Cancer)
COLO 205 = experiment: cells; assay type: cell-based; conditions: COLO 205 (Colon Cancer)
OVCAR-8 = experiment: cells; assay type: cell-based; conditions: OVCAR-8 (Ovarian Cancer)
HOP-62 = experiment: cells; assay type: cell-based; conditions: HOP-62 (NSCLC)
PYK2 = PYK2 (Homo sapiens, UniProt Q14289); experiment: Inhibition of enzymatic kinase activity (LANCE Ulight); assay type: biochemical; design: Purified full-length human SYK, ZAP70, PIM1, PYK2; purchased Carna Biosciences; conditions: at 1 μM concentration; read-out: PYK2 percentage inhibition
Experimental: (§1) Inhibition of Enzymatic SYK, ZAP70, PYK2, FAK, PIM1, RET, FLT3, JAK2 and LRRK2 Kinase Activity
(§2) Compounds of the invention were initially diluted to 10 mM in 100% DMSO (CALBIOCHEM™) for storage and made into kinase buffer solution to create a compound concentration ranging from 1 uM and 10 uM. Serial dilutions of compounds of the invention were dispensed into a 96-well plate (GREINER BIOSCIENCES™) at 6 μL each. Purified full-length human SYK, ZAP70, PIM1, PYK2 and truncated human FAK, RET, FLT3, JAK2, and LRRK2 (CARNA BIOSCIENCES™) were diluted in kinase buffer and added to the compound solutions and pre-incubated for 30 minutes at room temperature (1 hour for PYK2). […] The reaction mixture was incubated for 1 hour (2 hours for PYK2). Following the incubation, the stop solution made with EDTA, water, and Lance detection buffer ([…]™) was added (12 μL each) to stop phosphorylation.

SYK = SYK (Homo sapiens, UniProt P43405); experiment: as above; assay type: biochemical; design: Purified full-length human SYK, ZAP70, PIM1, PYK2; purchased Carna Biosciences; conditions: at 1 μM concentration; read-out: SYK percentage inhibition
Experimental: as §1, §2

LOX IMVI = experiment: cells; assay type: cell-based; conditions: LOX IMVI (Melanoma)
SN12C = experiment: cells; assay type: cell-based; conditions: SN12C (Renal Cancer)
NCI/ADR-RES = experiment: cells; assay type: cell-based; conditions: NCI/ADR-RES (Ovarian Cancer)
NCI-H460 = experiment: cells; assay type: cell-based; conditions: NCI-H460 (NSCLC)
[1] = Homo sapiens, read-out: LC50 (the source's name)

Chain of PYK2 (Q14289 whole entry): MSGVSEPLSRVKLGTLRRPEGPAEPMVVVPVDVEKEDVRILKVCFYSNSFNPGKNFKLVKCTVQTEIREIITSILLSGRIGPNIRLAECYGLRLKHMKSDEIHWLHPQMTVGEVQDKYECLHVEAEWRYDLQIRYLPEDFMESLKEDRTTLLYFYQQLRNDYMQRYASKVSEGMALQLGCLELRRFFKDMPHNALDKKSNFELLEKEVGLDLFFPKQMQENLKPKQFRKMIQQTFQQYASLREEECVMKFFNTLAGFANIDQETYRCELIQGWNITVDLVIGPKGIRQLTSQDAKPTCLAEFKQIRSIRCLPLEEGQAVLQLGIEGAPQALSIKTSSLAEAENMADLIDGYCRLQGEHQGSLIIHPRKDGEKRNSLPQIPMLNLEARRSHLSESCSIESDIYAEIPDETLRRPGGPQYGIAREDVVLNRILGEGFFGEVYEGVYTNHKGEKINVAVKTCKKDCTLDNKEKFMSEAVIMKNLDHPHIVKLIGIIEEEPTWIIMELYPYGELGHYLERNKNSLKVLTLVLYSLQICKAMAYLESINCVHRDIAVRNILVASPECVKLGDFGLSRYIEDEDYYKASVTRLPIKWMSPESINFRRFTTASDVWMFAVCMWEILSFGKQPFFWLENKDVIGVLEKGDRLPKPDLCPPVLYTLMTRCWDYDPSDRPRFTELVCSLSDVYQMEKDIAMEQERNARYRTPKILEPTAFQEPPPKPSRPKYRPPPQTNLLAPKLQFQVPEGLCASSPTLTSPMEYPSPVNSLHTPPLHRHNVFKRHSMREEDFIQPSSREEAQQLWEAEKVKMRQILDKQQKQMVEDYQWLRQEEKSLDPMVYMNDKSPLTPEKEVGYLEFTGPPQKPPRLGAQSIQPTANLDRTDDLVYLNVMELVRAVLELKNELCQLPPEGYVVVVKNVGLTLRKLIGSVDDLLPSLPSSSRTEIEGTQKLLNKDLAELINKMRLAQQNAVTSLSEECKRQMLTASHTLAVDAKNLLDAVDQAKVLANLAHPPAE

O=c1[nH]ccc2nc(N3CCC(O)CC3)nc(Nc3cccc(C(F)(F)F)c3)c12 [Compound 6, 2-(4-hydroxypiperidin-1-yl)-4-(3-(trifluoromethyl)phenylamino)pyrido[4,3-d]pyrimidine-5(6H)-one]
GI50 (NCI-H322M; Homo sapiens): 2290 nM
IC50 (NCI-H322M; Homo sapiens): 21.4 µM
CC50 (NCI-H322M; [1]): 100 µM
TGI (NCI-H322M): 28.8 µM
TGI (HCT-116): 12.3 µM
GI50 (HCT-116; Homo sapiens): 871 nM
IC50 (HCT-116; Homo sapiens): 1320 nM
CC50 (HCT-116; [1]): 75.9 µM
GI50 (K-562; Homo sapiens, K562): 3.16 µM
IC50 (K-562; Homo sapiens, K562): 3.98 µM
CC50 (K-562; Homo sapiens, K562, read-out: LC50 (the source's name)): 100 µM
TGI (K-562): 100 µM
TGI (HT29): 95.5 µM
GI50 (HT29; Homo sapiens, HT-29): 3.89 µM
IC50 (HT29; Homo sapiens, HT-29): 7.08 µM
CC50 (HT29; Homo sapiens, HT-29, read-out: LC50 (the source's name)): 100 µM
GI50 (SR; Homo sapiens): 708 nM
IC50 (SR; Homo sapiens): 2510 nM
CC50 (SR; [1]): 100 µM
TGI (SR): 26.9 µM
GI50 (UO-31; Homo sapiens): 776 nM
IC50 (UO-31; Homo sapiens): 16.2 µM
CC50 (UO-31; [1]): 100 µM
TGI (UO-31): 22.9 µM
GI50 (RXF 393; Homo sapiens): 1450 nM
IC50 (RXF 393; Homo sapiens): 21.4 µM
CC50 (RXF 393; [1]): 100 µM
TGI (RXF 393): 23.4 µM
TGI (COLO 205): 14.5 µM
GI50 (COLO 205; Homo sapiens): 3.09 µM
IC50 (COLO 205; Homo sapiens): 5.25 µM
CC50 (COLO 205; [1]): 45.7 µM
GI50 (OVCAR-8; Homo sapiens): 3.31 µM
IC50 (OVCAR-8; Homo sapiens): 5.01 µM
CC50 (OVCAR-8; [1]): 100 µM
TGI (OVCAR-8): 40.7 µM
TGI (HOP-62): 18.6 µM
GI50 (HOP-62; Homo sapiens): 4.37 µM
IC50 (HOP-62; Homo sapiens): 8.91 µM
CC50 (HOP-62; [1]): 79.4 µM
inhibition at 1 µM (PYK2): 83%
inhibition at 1 µM (SYK): 88%
GI50 (LOX IMVI; Homo sapiens): 1410 nM
IC50 (LOX IMVI; Homo sapiens): 2630 nM
CC50 (LOX IMVI; [1]): 91.2 µM
TGI (LOX IMVI): 16.6 µM
GI50 (SN12C; Homo sapiens): 4.07 µM
IC50 (SN12C; Homo sapiens): 12.9 µM
CC50 (SN12C; [1]): 100 µM
TGI (SN12C): 100 µM
GI50 (NCI/ADR-RES; Homo sapiens): 2340 nM
IC50 (NCI/ADR-RES; Homo sapiens): 4.37 µM
CC50 (NCI/ADR-RES; [1]): 100 µM
TGI (NCI/ADR-RES): 7.41 µM
GI50 (NCI-H460; Homo sapiens): 1620 nM
IC50 (NCI-H460; Homo sapiens): 2400 nM
CC50 (NCI-H460; [1]): 64.6 µM
TGI (NCI-H460): 15.1 µM
